Data: patent US20140328893A1, “NUTLIN COMPOUNDS FOR USE IN THE TREATMENT OF PULMONARY HYPERTENSION” (Institut National de la Sante et de la Recherche Medicale …, priority 2011, published 2014)

What was measured:
p53 pathway [1] = assay: p53 pathway activation in cultured human PA-SMCs (Western blotting, RT-qPCR); assay type: cell-based; conditions: 2.5 to 10 μM
Procedure: (§1) Cultured PA-SMCs were collected from pulmonary arteries of patients undergoing lung surgery for localized lung tumours. To determine the phenotypic characteristics of cultured PA-SMCs, the cells from each culture were assessed for expression of musclespecific contractile and cytoskeletal proteins, including smooth muscle cell α-actin and desmin.
(§2) To assess the effects of nutlin on cell senescence, the percentage of beta-galactosidase (β-gap)-positive cells was measured after 48 hours incubation with nutlin-3 in presence or absence of vehicle or PDGF. The amounts of p53, p16, and p21 proteins or mRNA were determined by western blotting o by RT-qPCR, respectively.
(§3) p53, p16, p21, caspase and MDM2 proteins were detected and measured in lung tissues and/or cells using Western blotting. Levels of p21, Bax, and PUMA mRNA in lung tissues and/or cells were determined using RT-qPCR. Total mRNA was extracted from lung tissues and PA-SMC using RNeasy Mini Kit (Qiagen, ZA Courtaboeuf, France). First-strand cDNA was synthesized in reversed transcribed samples, as follows: 1 μg total RNA isolated from cells or lung tissues, 200 U/μL SuperScrip II RT (Invitrogen, Life Technologies, Cergy-Pontoise, France), 100 ng Random primers and 10 mM mixed dNTP. Quantitative PCR was performed in a 7900HT Real-Time PCR system (Applied Biosystems, ZA Courtaboeuf, France), using SYBR green Mix from Invitrogen.

cultured human PA-SMC [2] = assay: PA-SMC proliferation (MTT); assay type: cell-based; conditions: 2.5-10 μM, 48 hours
Procedure: as §1
To assess the effects of nutlin-3 on PASMC proliferation, cells were exposed to increasing concentration of nutlin-3a (2.5-10 μM) or vehicle in serum-free medium or in presence of PDGF-BB (50 ng/ml). After 48 hours, tetrazolium salt (MTT), (Sigma, Lyon, France) was added to each well (0.2 mg/ml). After 4 hours incubation at 37° C., the culture medium was removed and formazan crystals were solubilized by adding 500 μL of DMSO. Tetrazolium salt reduction to formazan within the cells was quantified by spectrophotometry at 520 nm.

cultured human PA-SMC [3] = assay: PA-SMC senescence (beta-galactosidase-positive cells); assay type: cell-based; conditions: 48 hours incubation
Procedure: as §1, §2

[4] = test system: mice exposed to chronic hypoxia; assay: Pulmonary hypertension in mice exposed to chronic hypoxia; assay type: in vivo
Procedure: (§4) Wild-type mice aged 15-20 weeks were randomly allocated to room air or chronic hypoxia. Transgenic animals expressing the human 5-HTT gene in smooth muscle (SM22-5-HTT+ mice) were produced as previously described. All animal care and procedures were in accordance with institutional guidelines.
(§5) Nutlin-3 was administered at the increasing dosages of 6, 12, and 25 mg/Kg/day by intraperitoneal injection. At completion of treatment, lungs were removed and prepared for histological or Western blot analyses.
Mice were exposed to chronic hypoxia (10% O2) in a ventilated chamber (Biospherix, N.Y., USA). The hypoxic environment was established by flushing the chamber with a mixture of room air and nitrogen, and the gas was recirculated. The chamber environment was monitored using an oxygen analyzer. Carbon dioxide was removed by soda lime granules, and excess humidity was prevented by cooling of the recirculation circuit. Normoxic mice were kept in the same room, with the same light-dark cycle.
Mice exposed previously to hypoxia or room air or SM22-5-HTT+ mice were anaesthetized. After incision of the abdomen, a 26-gauge needle connected to a pressure transducer was inserted into the right ventricle through the diaphragm, and right ventricular systolic pressure (RVSP) was recorded immediately. Then, the thorax was opened and the lungs and heart were removed. The right ventricle (RV) was dissected from the left ventricle plus septum (LV+S), and these dissected samples were weighed for determination of Fulton's index (RV/LV+S). The lungs were fixed by intratracheal infusion of 4% aqueous buffered formalin. A midsagittal slice of the right lung was processed for paraffin embedding. Sections 5 μm in thickness were cut and stained with hematoxylin-phloxine-saffron for examination by light microscopy. In each mouse, a total of 20 to 30 intraacinar vessels accompanying either alveolar ducts or alveoli were examined by an observer who was blinded to the treatment or genotype. Each vessel was categorized as nonmuscular (no evidence of vessel wall muscularization), partially muscular (smooth muscle cells [SMCs] identifiable in less than three-fourths of the vessel circumference), or fully muscular (SMCs in more than three-fourths of the vessel circumference). The percentage of pulmonary vessels in each muscularization category was determined by dividing the number of vessels in that category by the total number counted in the relevant group of animals. For fully muscular vessels, video images were obtained and arterial diameters were measured using computerized image-analysis software. Percent wall thickness was then calculated as the diameter of the external elastic lamina minus the diameter of the internal lamina divided by the diameter of the external elastic lamina.

SM22-5-HTT+ mice = assay: Pulmonary hypertension in SM22-5-HTT+ mice; assay type: in vivo; conditions: 12 mg/Kg/day
Procedure: as §4, §5
Mice exposed previously to hypoxia or room air or SM22-5-HTT+ mice were anaesthetized. After incision of the abdomen, a 26-gauge needle connected to a pressure transducer was inserted into the right ventricle through the diaphragm, and right ventricular systolic pressure (RVSP) was recorded immediately. Then, the thorax was opened and the lungs and heart were removed. […] The percentage of pulmonary vessels in each muscularization category was determined by dividing the number of vessels in that category by the total number counted in the relevant group of animals. For fully muscular vessels, video images were obtained and arterial diameters were measured using computerized image-analysis software. Percent wall thickness was then calculated as the diameter of the external elastic lamina minus the diameter of the internal lamina divided by the diameter of the external elastic lamina.

p53 pathway [5] = assay: Lung p53 and p21 levels in hypoxic mice (Western blotting, RT-qPCR); assay type: in vivo
Procedure: as §5, §3

p53 pathway [6] = assay: Lung p53 and p21 levels in SM22-5-HTT+ mice (Western blotting, RT-qPCR); assay type: in vivo
Procedure: as §5, §3

[7] = test system: p53-deficient (p53−/−) mice; assay: Chronic hypoxia-induced pulmonary hypertension in p53-deficient mice; assay type: in vivo
Source text: Normoxic mice were kept in the same room, with the same light-dark cycle.

[8] = chronic hypoxia mice, 6 to 25 mg/Kg/day intraperitoneally
[9] = mice, associated with protective effects

COc1ccc(C2=NC(c3ccc(Cl)cc3)C(c3ccc(Cl)cc3)N2C(=O)N2CCNC(=O)C2)c(OC(C)C)c1 (racemic) [Nutlin-3, (±)-4-[4,5-Bis(4-chlorophenyl)-2-(2-isopropoxy-4-methoxy-phenyl)-4,5-dihydro-imidazole-1-carbonyl]-piperazin-2-one]
mRNA level of p53 target gene Bax (p53 pathway [1]): increased | mRNA level of p53 target gene PUMA (p53 pathway [1]): increased | mRNA level of p53 target gene p21 (p53 pathway [1]): increased | p53 protein (p53 pathway [1]): increased | cell proliferation stimulated by 50 ng/ml PDGF (cultured human PA-SMC [2]; 50 ng/ml PDGF): dose-dependent inhibition | cell proliferation stimulated by 0.2% FCS (cultured human PA-SMC [2]; 0.2% FCS): dose-dependent inhibition | percentage of beta-galactosidase stained cells (senescent cells) (cultured human PA-SMC [3]): increase | distal pulmonary artery muscularization [4, 8]: prevented | pulmonary hypertension [4, 8]: prevented | right ventricular hypertrophy [4, 8]: prevented | PA-SMC proliferation [4, 9]: decrease | apoptosis [4, 9]: increase | PH in SM22-5-HTT+ mice (SM22-5-HTT+ mice): partially reversed | lung p21 mRNA (p53 pathway [5]): marked increases | lung p21 protein (p53 pathway [5]): marked increases | lung p53 protein (p53 pathway [5]): marked increases | lung p21 mRNA (p53 pathway [6]): marked increases | lung p21 protein (p53 pathway [6]): marked increases | lung p53 protein (p53 pathway [6]): marked increases

COc1ccc(C2=N[C@@H](c3ccc(Cl)cc3)[C@@H](c3ccc(Cl)cc3)N2C(=O)N2CCNC(=O)C2)c(OC(C)C)c1 [nutlin-3a]
pulmonary hypertension induced by chronic hypoxia in p53-deficient mice [7]: remained unaffected
